We go through four compounds from patent US10266510B2, “Antimicrobial and cytotoxic compounds and methods for treating cancer, a bacterial infection, and/or a fungal infection” (King Abdulaziz University, priority 2017, dated 2019).

Experiment in all cases: Well diffusion agar method, inhibition zone
Common to all, as to format: cell-based
(In general: A growth-free zone around the sample is the usual read-out of agar diffusion tests.)

Assay [1] concerns Aspergillus flavus ATCC 16883. An excerpt: (§1) The ability to inhibit the growth of Gram-positive and Gram-negative bacteria, yeasts and filamentous fungi was observed using an overlay method (S. R. Connell, D. M. Tracz, K. H. Nierhaus, D. E. Taylor, Antimicrob. Agents Chemother. 47, 3675 (2003), incorporated herein by reference in its entirety).
(§2) The common pathogenic and food spoilage microorganisms were selected for their relevance in bakery products and other food: the gram-positive bacteria: Bacillus subtilits NRRL-B-4219, Staphylococcus aureus ATCC 6538, Enterococcus faecalis ATCC 19433; the gram negative bacteria: Escherichia coli ATCC 25922, Pseudomonas aeruginosa ATCC 9027, Proteus sp.; yeasts, such as Candida albicans ATCC 10231; and fungi: Aspergillus niger NRRL 2766 (equivalent to ATCC 16888), and Aspergillus flavus ATCC 16883. The bacteria were slanted on nutrient agar (Merck, Darmstadt, Germany), yeast was slanted and mentioned on Sabaroud's agar medium (Lab M., Bury, Lancashire, UK) and the fungi was slanted and mentioned on the potato Dextrose Agar medium (Lab M Limited, Bury, Lancashire, UK). Mueller-Hinton agar (Lab M., Bury, Lancashire, UK) following the manufacturer's instructions was used for the assay.
(§3) All compounds were dissolved in dimethyl sulfoxide (RFCL Limited, New Delhi, India) at 50 μg/mL concentration as shown in Table 4 in comparison with different standard antibiotics. Antibiotic discs of Streptomycin (S) (10 μg), Oxytetracycline (T) (30 μg), and Tetracyciline (TE) (30 μg) were used as positive controls for bacteria. Neomycin (N) (30 μg), was used for fungi.
(§4) The antibacterial screening was performed with the well diffusion agar method (S. T. Williams, M. Goodfellow, E. M. H. Wellington, J. C. Vickers, G. Alderson, P. H. A. Sneath, S. M. J. Sackins, A. M. Mortimer, J. Gen. Microbiol. 129, 1815(1983); and B. Bonev, J. Hooper, J. Parisot, J. Antimicrob. Chemother., 61, 1295(2008), each incorporated herein by reference in their entirety). The organisms were streaked in radial patterns on the agar plates. Plates were incubated under aerobic conditions at 37° C. and 28° C. for 24 h and 48 h for bacteria and fungi, respectively. All prepared solutions were treated under the same conditions under the same incubated plates. All tests were performed in triplicate. Plates were examined for evidence of antimicrobial activities, represented by a zone of inhibition of the microorganism's growth around the holes, and diameters of clear zones were expressed in millimeters (R. Cruickshank, J. P. Duguid, B. P. Marmion, R. H. A. Swain, The practice of medicinal microbiology. In Medical Microbiology, 12th ed.; Churchill Livingstone: Edinburgh, UK, Volume 11, pp. 196-202 (1975), incorporated herein by reference in its entirety).

Assay [2] concerns Aspergillus niger NRRL 2766.
Text: as §1, §2, §3, §4

The test system of assay [3] is Bacillus subtilits NRRL-B-4219.
Text: as §1, §2, §3, §4

Assay [4] concerns Candida albicans ATCC 10231.
Text: as §1, §2, §3, §4

The subject of assay [5] is Enterococcus faecalis ATCC 19433.
Text: as §1, §2, §3, §4

Assay [6] deals with Escherichia coli ATCC 25922.
Text: as §1, §2, §3, §4

The subject of another assay is Proteus sp.
Text: as §1, §2, §3, §4

Assay [7] relates to Pseudomonas aeruginosa ATCC 9027.
Text: as §1, §2, §3, §4

In assay [8] the test system is Staphylococcus aureus ATCC 6538.
Text: as §1, §2, §3, §4

As to `[H]/N=C(/N)N[C@H]1[C@H](O)[C@@H](O)[C@H](O[C@@H]2O[C@@H](C)[C@](O)(C=O)[C@H]2O[C@@H]2O[C@@H](CO)[C@H](O)[C@@H](O)[C@@H]2NC)[C@@H](N/C(N)=N\[H])[C@@H]1O` (relative stereo) [S*, Streptomycin], the “Inhibition zone, A. flavus” value in assay [1] (standard antibiotic disc 10 μg) worked out at 0 mm. For the same compound, the “Inhibition zone, A. niger” value in assay [2] (standard antibiotic disc 10 μg) is 0 mm. Also, in assay [3] (standard antibiotic disc 10 μg), the “Inhibition zone, B. subtilits” value was found to be 14 mm. Moreover, in assay [4] (standard antibiotic disc 10 μg), the “Inhibition zone, C. albicans” value came to 12 mm. The “Inhibition zone, Ent. faecalis” value in assay [5] (standard antibiotic disc 10 μg) turned out to be 0 mm. For the same compound, the “Inhibition zone, E. coli” value in assay [6] (standard antibiotic disc 10 μg) stood at 0 mm. Also, the “Inhibition zone, Proteus sp.” value in the assay with Proteus sp. (standard antibiotic disc 10 μg) is listed as 0 mm. For the same compound, the “Inhibition zone, P. aeruginosa” value in assay [7] (standard antibiotic disc 10 μg) is 0 mm. Further, the “Inhibition zone, S. aureus” value in assay [8] (standard antibiotic disc 10 μg) was 0 mm.
As to `NC[C@@H]1O[C@H](O[C@H]2[C@@H](O)[C@H](O[C@@H]3[C@@H](O)[C@H](N)C[C@H](N)[C@H]3O[C@H]3O[C@H](CN)[C@@H](O)[C@H](O)[C@H]3N)O[C@@H]2CO)[C@H](N)[C@@H](O)[C@@H]1O` [N*, Neomycin], the “Inhibition zone, A. flavus” value in assay [1] (standard antibiotic disc 30 μg) stood at 14 mm. Further, in assay [2] (standard antibiotic disc 30 μg), the “Inhibition zone, A. niger” value is given as 16 mm. Further, the “Inhibition zone, B. subtilits” value in assay [3] (standard antibiotic disc 30 μg) was 0 mm. Further, the “Inhibition zone, C. albicans” value in assay [4] (standard antibiotic disc 30 μg) worked out at 0 mm. Besides, the “Inhibition zone, Ent. faecalis” value in assay [5] (standard antibiotic disc 30 μg) stood at 0 mm. For the same compound, the “Inhibition zone, E. coli” value in assay [6] (standard antibiotic disc 30 μg) is 0 mm. Besides, the “Inhibition zone, Proteus sp.” value in the assay with Proteus sp. (standard antibiotic disc 30 μg) is 0 mm. Further, the “Inhibition zone, P. aeruginosa” value in [7] (standard antibiotic disc 30 μg) was 0 mm. For the same compound, the “Inhibition zone, S. aureus” value in [8] (standard antibiotic disc 30 μg) came out at 0 mm.
Consider `CN(C)[C@@H]1C(O)=C(C(N)=O)C(=O)[C@@]2(O)C(O)=C3C(=O)c4c(O)cccc4[C@@](C)(O)[C@H]3[C@H](O)[C@@H]12` [T*, Oxytetracycline], for which, in assay [1] (standard antibiotic disc 30 μg), the “Inhibition zone, A. flavus” value is 0 mm. Moreover, in assay [2] (standard antibiotic disc 30 μg), the “Inhibition zone, A. niger” value is recorded as 0 mm. In addition, the “Inhibition zone, B. subtilits” value in [3] (standard antibiotic disc 30 μg) was 30 mm. In assay [4] (standard antibiotic disc 30 μg), the “Inhibition zone, C. albicans” value amounted to 0 mm. For the same compound, the “Inhibition zone, Ent. faecalis” value in assay [5] (standard antibiotic disc 30 μg) is recorded as 0 mm. For the same compound, in [6] (standard antibiotic disc 30 μg), the “Inhibition zone, E. coli” value is listed as 0 mm. Further, the “Inhibition zone, Proteus sp.” value in the assay on Proteus sp. (standard antibiotic disc 30 μg) is 0 mm. Moreover, the “Inhibition zone, P. aeruginosa” value in assay [7] (standard antibiotic disc 30 μg) turned out to be 0 mm. In addition, the “Inhibition zone, S. aureus” value in [8] (standard antibiotic disc 30 μg) was 0 mm.
As to `CN(C)[C@@H]1C(O)=C(C(N)=O)C(=O)[C@@]2(O)C(O)=C3C(=O)c4c(O)cccc4[C@@](C)(O)[C@H]3C[C@@H]12` [TE*, Tetracyciline], in [1] (standard antibiotic disc 30 μg), the “Inhibition zone, A. flavus” value worked out at 14 mm. The “Inhibition zone, A. niger” value in assay [2] (standard antibiotic disc 30 μg) came out at 16 mm. The “Inhibition zone, B. subtilits” value in assay [3] (standard antibiotic disc 30 μg) worked out at 10 mm. Moreover, in assay [4] (standard antibiotic disc 30 μg), the “Inhibition zone, C. albicans” value stood at 0 mm. Besides, the “Inhibition zone, Ent. faecalis” value in [5] (standard antibiotic disc 30 μg) is recorded as 0 mm. For the same compound, the “Inhibition zone, E. coli” value in assay [6] (standard antibiotic disc 30 μg) worked out at 0 mm. The “Inhibition zone, Proteus sp.” value with Proteus sp. (standard antibiotic disc 30 μg) is listed as 0 mm. In addition, the “Inhibition zone, P. aeruginosa” value in assay [7] (standard antibiotic disc 30 μg) turned out to be 0 mm. Also, the “Inhibition zone, S. aureus” value in assay [8] (standard antibiotic disc 30 μg) is reported as 0 mm.
